Data taken from US10363251B2, “(+)-morphinans as antagonists of toll-like receptor 9 and therapeutic uses thereof” (Mallinckrodt LLC, priority 2009, dated 2019).
Entries after “also recorded” stand apart in the source; their conditions may differ. Like-named read-outs stand apart in the source and are kept apart here.

Tests used:
[1] = system: chronic constriction injury (CCI) neuropathic pain model; assay: Reversal of allodynia (von Frey) in CCI rats, 4 days of dosing, Example 4; type: in vivo, rat; settings: for Reversal of allodynia (von Frey): i.p. once a day for 4 days from day 14, tested 3 hrs after dosing, ultra low to high dose; for Reversal of allodynia (von Frey) / Area under the curve (AUC) analysis of allodynia: vs saline; for Area under the curve (AUC) analysis of allodynia: i.p. once a day for 4 days
Protocol: Allodynia was induced in a group of (male, Sprague-Dawley) rats essentially as described above in Example 3. Prior to surgery, animals were tested to establish their baseline von Frey scores. Any animal with a Log absolute von Frey score lower than 4.65 on either leg was excluded from the study. CCI surgery was performed on the left sciatic nerve as detailed above. On days 4 and 14 post-surgery, the animals were tested using the von Frey test of mechanical allodynia to ensure that allodynia was established.
Beginning at about day 14 post-surgery, the animals were dosed once a day for 4 days. Compounds II-25, II-93, II-62, and III-2 were tested. All drugs were administered intraperitoneally (i.p.). Allodynia was tested prior to and again 3 hrs after each dosing. Drug administration and testing was done blindly. After the 4th day of dosing, the animals were sacrificed, cardiac perfusion was performed, and spinal cords were removed and stored for further analysis.
All data were analyzed using 2-way ANOVA's with Bonferroni's post hoc test compared to saline unless otherwise stated. Area under curve (AUC) was calculated using Graphpad Prism and comparisons were made using 1-way ANOVA with Dunnet's post hoc test.

TLR9 = molecular target: T1, TLR9 (Homo sapiens, UniProt Q9NR96); assay: TLR9 screening of (+)-morphinan library, SEAP reporter in HEK293 cells expressing TLR9; type: cell-based; settings: activator ODN2006; for OD 650 nm (mean ± sd): control (no activator) 0.14, activator 1.42 OD
T1 construct: expressed in transfected cells; host or cells: HEK293
T1 sequence (Q9NR96 26-1032): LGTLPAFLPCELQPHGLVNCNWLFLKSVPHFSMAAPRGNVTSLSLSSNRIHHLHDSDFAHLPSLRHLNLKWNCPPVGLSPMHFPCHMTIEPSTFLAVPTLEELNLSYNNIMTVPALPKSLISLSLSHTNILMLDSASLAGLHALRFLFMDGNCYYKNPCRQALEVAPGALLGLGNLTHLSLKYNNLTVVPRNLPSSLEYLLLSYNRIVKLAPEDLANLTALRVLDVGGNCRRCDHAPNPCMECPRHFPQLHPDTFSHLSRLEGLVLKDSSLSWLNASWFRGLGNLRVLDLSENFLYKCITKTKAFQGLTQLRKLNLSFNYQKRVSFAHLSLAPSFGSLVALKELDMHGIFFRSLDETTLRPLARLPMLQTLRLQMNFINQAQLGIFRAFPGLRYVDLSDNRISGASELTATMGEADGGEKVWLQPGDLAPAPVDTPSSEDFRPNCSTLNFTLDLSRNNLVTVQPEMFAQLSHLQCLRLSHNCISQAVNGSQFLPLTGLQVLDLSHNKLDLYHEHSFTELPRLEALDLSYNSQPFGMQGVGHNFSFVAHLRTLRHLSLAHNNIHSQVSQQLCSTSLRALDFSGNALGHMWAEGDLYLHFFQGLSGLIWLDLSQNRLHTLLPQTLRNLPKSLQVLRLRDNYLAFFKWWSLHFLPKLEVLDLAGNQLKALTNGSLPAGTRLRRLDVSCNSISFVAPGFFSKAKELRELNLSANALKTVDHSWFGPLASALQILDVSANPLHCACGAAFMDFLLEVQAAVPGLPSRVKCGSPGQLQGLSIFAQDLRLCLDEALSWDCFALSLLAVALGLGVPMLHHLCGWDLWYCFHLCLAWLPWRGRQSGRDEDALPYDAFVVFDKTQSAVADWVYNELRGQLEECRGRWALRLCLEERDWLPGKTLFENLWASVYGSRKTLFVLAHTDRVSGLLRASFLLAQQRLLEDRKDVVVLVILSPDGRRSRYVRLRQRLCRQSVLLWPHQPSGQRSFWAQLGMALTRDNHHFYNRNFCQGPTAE
Method in brief: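 HEK293 cells expressing TLR9 with an NF-κB-inducible SEAP reporter were preincubated with compound at 10 μM and 100 nM for 30 min at 37 °C, then stimulated with ODN2006. SEAP was read as OD 650 nm after 16-20 h, in triplicate.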

[2] = HEK293, read-out: % Inhibition (mean), 100 nM
[3] = HEK293, read-out: % Inhibition (mean), 10 μM
[4] = HEK293, 100 nM, read-out: % Inhibition (mean)
[5] = HEK293, 10 μM, read-out: % Inhibition (mean)

Structure (SMILES)	OD 650 nm (mean ± sd) (TLR9; 100 nM) [OD]	OD 650 nm (mean ± sd) (TLR9; 10 μM) [OD]	inhibition at 0.1 µM (TLR9; [2]) [%]	inhibition at 10 µM (TLR9; [3]) [%]	other results
COc1ccc2c3c1O[C@@H]1[C@H](O)CC[C@@H]4[C@H](C2)N(CC2CC2)CC[C@]341 [II-25]	1.33 ± 0.07	0.21 ± 0.06	6	85	Animals sleepier/sedated on at least one post dosing occasion ([1]; high dose, i.p.): 5-6; Reversal of allodynia (von Frey) [1]: significant overall effect on the reversal of allodynia bilaterally; also recorded: effective at reversing mechanical allodynia; Area under the curve (AUC) analysis of allodynia [1]: significantly reversed allodynia
CN(C(=O)/C=C/c1ccoc1)[C@H]1CC[C@]2(O)[C@@H]3Cc4ccc(O)c5c4[C@]2(CCN3CC2CC2)[C@@H]1O5 [II-62]	1.34 ± 0.05	0.18 ± 0.01	6	87	Time course analysis of allodynia, ipsilateral paw ([1]; Day 4 of dosing): slight reversal of allodynia; Animals sleepier/sedated on at least one post dosing occasion ([1]; high dose, i.p.): two; Local observations (swelling, irritation) ([1]; high dose, i.p.): appeared to irritate the rats when it was injected; also recorded: swelling around the site of injection; Reversal of allodynia (von Frey) [1]: did not significantly reverse allodynia at any dose; Area under the curve (AUC) analysis of allodynia [1]: no overall effect of any dose; Animals sleepier/sedated on at least one post dosing occasion ([1]; low dose, i.p.): one; Animals sleepier/sedated on at least one post dosing occasion ([1]; medium dose, i.p.): one
CO[C@]12CCC(=O)[C@H]3Oc4c(O)ccc5c4[C@]31CCN(CC1CC1)[C@H]2C5 [II-79]	1.07 ± 0.03	1.06 ± 0.11	25	25	
Oc1ccc2c3c1O[C@@H]1[C@H](O)CC[C@]4(O)[C@H](C2)N(CC2CCC2)CC[C@@]314 [II-82]	1.37 ± 0.02	0.49 ± 0.03	4	65	
COc1ccc2c3c1O[C@@H]1C(OC(C)=O)=CC[C@]4(O)[C@H](C2)N(C(C)=O)CC[C@@]314 [II-83]	1.40 ± 0.13	1.11 ± 0.09	1	22	
COc1ccc2c3c1O[C@@H]1C(=O)CC[C@]4(O)[C@H](C2)N(C(C)=O)CC[C@@]314 [II-84]	1.44 ± 0.06	1.51 ± 0.08	-1	-6	
COc1ccc2c3c1O[C@@H]1C(=O)CC[C@@H]4[C@H](C2)N(C(=O)C2CCC2)CC[C@@]314 [II-85]	1.45 ± 0.04	1.45 ± 0.04	-2	-2	
COC1=CC=C2[C@@H]3Cc4c(Br)cc(OCc5ccccc5)c5c4[C@]2(CCN3CC2CC2)[C@@H]1O5 [II-86]	1.15 ± 0.11	0.13 ± 0.03	19	91	
COC1=CCC2[C@@H]3Cc4ccc(OC)c5c4[C@]2(CCN3CC2CC2)[C@@H]1O5 (stereo partly shown) [II-87]	1.28 ± 0.06	0.45 ± 0.01			% Inhibition (mean) (TLR9; 100 nM, 0.1 µM): 10%; % Inhibition (mean) (TLR9; 10 μM): 69%
O=C1CC[C@@H]2[C@@H]3Cc4ccc(OCc5ccccc5)c5c4[C@]2(CCN3CC2CC2)[C@@H]1O5 [II-88]	1.12 ± 0.15	0.13 ± 0.01	21	91	
C=CCN1CC[C@@]23c4c5ccc(OC)c4O[C@@H]2C2(CC[C@@H]3[C@@H]1C5)OCCO2 [II-89]	1.53 ± 0.10	1.08 ± 0.02	-8	24	
[O-][N+]1(CC2CC2)CC[C@@]23c4c5ccc(O)c4O[C@@H]2[C@H](O)CC[C@]3(O)[C@@H]1C5 (stereo partly shown) [II-90]	1.39 ± 0.03	0.17 ± 0.05	2	88	
CCCNC1CCC2C3Cc4ccc(OC)c5c4[C@]2(CCN3C)C1O5 (stereo partly shown) [II-91]	0.12 ± 0.01	0.09 ± 0.01	92	93	
COC(=O)[C@@H](C)NC1CCC2C3Cc4ccc(OC)c5c4[C@]2(CCN3C)C1O5 (stereo partly shown) [II-92]	1.09 ± 0.03	0.73 ± 0.06	23	48	
COC1=CCC2[C@@H]3Cc4ccc(OC)c5c4[C@]2(CCN3CC2CC2)[C@@H]1O5 (stereo partly shown) [II-95]	1.11 ± 0.04	0.37 ± 0.03		74	% Inhibition (mean) (TLR9; 100 nM, 0.1 µM): 22%
COC1=CCC2[C@@H]3Cc4ccc(OC)c5c4[C@]2(CCN3C)[C@@H]1O5 (stereo partly shown) [II-96]	1.15 ± 0.06	0.42 ± 0.02	19	71	
COc1ccc2c3c1O[C@@H]1C4(CCC5[C@H](C2)N(CC2CC2)CC[C@]351)OCCO4 (stereo partly shown) [II-97]	1.22 ± 0.02	1.42 ± 0.07	14	0	
COc1ccc2c3c1O[C@@H]1C(OC)(OC)CCC4[C@H](C2)N(CC2CC2)CC[C@]341 (stereo partly shown) [II-99]	1.32 ± 0.00	0.14 ± 0.01	7	90	
COC1=CCC2[C@@H]3Cc4ccc(OC)c5c4[C@]2(CCN3C(=O)Oc2ccccc2)[C@@H]1O5 (stereo partly shown) [II-100]	1.16 ± 0.02	1.45 ± 0.11	18	-2	
COc1ccc2c3c1O[C@@H]1C(OC)(OC)C(Br)CC4[C@H](C2)N(C)CC[C@]341 (stereo partly shown) [II-101]	1.35 ± 0.06	0.94 ± 0.02	5	34	
COc1ccc2c(c1)CCN[C@@H]2Cc1ccc(OC)c(O)c1 [III-1]	1.34 ± 0.06	0.67 ± 0.01			inhibition at 0.1 µM (TLR9; [4]): 6%; inhibition at 10 µM (TLR9; [5]): 53%
COc1ccc2c(c1)CCN(CC1CC1)[C@@H]2Cc1ccc(OC)c(O)c1 [III-3]	1.03 ± 0.03	0.13 ± 0.01			inhibition at 0.1 µM (TLR9; [4]): 27%; inhibition at 10 µM (TLR9; [5]): 91%
COc1ccc2c(c1)CCN(CC1CCC1)[C@@H]2Cc1ccc(OC)c(O)c1 [III-4]	1.04 ± 0.04	0.11 ± 0.01			inhibition at 0.1 µM (TLR9; [4]): 27%; inhibition at 10 µM (TLR9; [5]): 92%
COc1ccc2c(c1)CCN(C)[C@@H]2Cc1ccc(OC)c(O)c1 [III-5]	1.11 ± 0.02	0.29 ± 0.01			inhibition at 0.1 µM (TLR9; [4]): 22%; inhibition at 10 µM (TLR9; [5]): 80%
